# Source: patent publication US8697877B2, “Oxyindole derivatives with motilin receptor agonistic activity” (RaQualia Pharma Inc., priority 2009, dated 2014)
# Target: T1, human motilin receptor (GPR38) (Homo sapiens, UniProt O43193)
# T1 construct: expressed in transfected cells; host or cells: CHO-K1
# Test: GPR38 (Motilin Receptor) Functional Assay, NFAT-beta-lactamase reporter in CHO-K1 cells
# Format: cell-based
# Conditions: not given
# Procedure, shortened: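 CHO-K1 cells stably carrying NFAT-beta-lactamase reporter and human motilin receptor, 8000 cells/well, compound 4.5 h at 37° C. CCF4-AM loaded 2 h at room temperature; fluorescence read at ex 400 nm, em 465/540 nm. Agonist EC50 from sigmoidal dose-response curve.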
# T1 sequence (O43193 whole entry): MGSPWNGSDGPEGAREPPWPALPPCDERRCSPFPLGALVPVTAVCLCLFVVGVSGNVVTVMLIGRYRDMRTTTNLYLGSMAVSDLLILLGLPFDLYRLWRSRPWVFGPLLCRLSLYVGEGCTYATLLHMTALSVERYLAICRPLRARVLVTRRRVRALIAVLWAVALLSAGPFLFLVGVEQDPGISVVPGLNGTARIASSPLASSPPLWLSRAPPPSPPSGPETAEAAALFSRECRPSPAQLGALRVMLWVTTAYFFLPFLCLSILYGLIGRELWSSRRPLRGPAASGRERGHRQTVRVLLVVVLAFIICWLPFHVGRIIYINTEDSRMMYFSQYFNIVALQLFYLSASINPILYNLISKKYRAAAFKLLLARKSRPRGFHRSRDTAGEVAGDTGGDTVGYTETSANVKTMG
row,SMILES,EC50
1,"CC1(C)C(=O)N(C2CCN(C(=O)[C@H](CCc3ccccc3)NC(=O)NCCN3CCCC3)CC2)c2ccccc21 [Example 64, (S)-1-(1-(4-(3,3-dimethyl-2-oxo-indolin-1-yl)piperidin-1-yl)-1-oxo-4-phenylbutan-2-yl)-3-(2-(pyrrolidin-1-yl)ethyl)urea]",≤ 10 nM
2,"CN(C)CCNC(=O)N[C@@H](CCc1ccccc1)C(=O)N1CCC(N2C(=O)C(C)(C)c3ccccc32)CC1 [Example 65, (S)-1-(1-(4-(3,3-dimethyl-2-oxo-indolin-1-yl)piperidin-1-yl)-1-oxo-4-phenylbutan-2-yl)-3-(2-(dimethyl-amino)ethyl)urea]",≤ 10 nM
3,"CN(C)[C@H]1CCN(C(=O)N[C@@H](CCc2ccccc2)C(=O)N2CCC(N3C(=O)C(C)(C)c4ccccc43)CC2)C1 [Example 67, (S)—N—((S)-1-(4-(3,3-dimethyl-2-oxoindolin-1-yl)piperidin-1-yl)-1-oxo-4-phenylbutan-2-yl)-3-(dimethylamino)pyrrolidine-1-carboxamide]",≤ 10 nM
4,"CN1CCC[C@H]1CNC(=O)N[C@@H](CCc1ccccc1)C(=O)N1CCC(N2C(=O)C(C)(C)c3ccccc32)CC1 [Example 68, 1-((S)-1-(4-(3,3-dimethyl-2-oxo-indolin-1-yl)piperidin-1-yl)-1-oxo-4-phenylbutan-2-yl)-3-(((S)-1-methylpyrrolidin-2-yl)methyl)urea]",≤ 10 nM
5,"CN1CCC(C)(NC(=O)N[C@@H](CCc2ccccc2)C(=O)N2CCC(N3C(=O)C(C)(C)c4ccccc43)CC2)CC1 [Example 69, (S)-1-(1-(4-(3,3-dimethyl-2-oxo-indolin-1-yl)piperidin-1-yl)-1-oxo-4-phenylbutan-2-yl)-3-(1,4-dimethylpiperidin-4-yl)urea]",≤ 10 nM
6,"CN[C@H]1CCN(C(=O)N[C@@H](CCc2ccccc2)C(=O)N2CCC(N3C(=O)C(C)(C)c4cc(F)ccc43)CC2)C1 [Example 70, (S)—N—((S)-1-(4-(5-fluoro-3,3-dimethyl-2-oxoindolin-1-yl)piperidin-1-yl)-1-oxo-4-phenylbutan-2-yl)-3-(methylamino)pyrrolidine-1-carboxamide]",≤ 10 nM
7,"CC1(C)C(=O)N(C2CCN(C(=O)[C@H](CCc3ccccc3)NC(=O)NC[C@@H]3CCCN3)CC2)c2ccc(F)cc21 [Example 71, 1-((S)-1-(4-(5-fluoro-3,3-dimethyl-2-oxoindolin-1-yl)piperldin-1-yl)-1-oxo-4-phenylbutan-2-yl)-3-((S)-pyrrolidin-2-ylmethyl)urea]",≤ 10 nM
8,CC1(NC(=O)N[C@@H](CCc2ccccc2)C(=O)N2CCC(N3C(=O)C(C)(C)c4cc(F)ccc43)CC2)CCNCC1 [Example 72],≤ 10 nM
9,"CC1(C)C(=O)N(C2CCN(C(=O)[C@H](Cc3ccccc3C(F)(F)F)NC(=O)C3CCNCC3)CC2)c2ccccc21 [Example 78, (S)-N-(1-(4-(3,3-dimethyl-2-oxoindolin-1-yl)piperidin-1-yl)-1-oxo-3-(2-(trifluoro-methyl)phenyl)propan-2-yl)piperidine-4-carboxamide]",≤ 10 nM
10,"CC1(C)C(=O)N(C2CCN(C(=O)[C@H](Cc3ccccc3Cl)NC(=O)C3CCNCC3)CC2)c2ccccc21 [Example 79, (S)-N-(3-(2-chlorophenyl)-1-(4-(3,3-dimethyl-2-oxo-indolin-1-yl)piperidin-1-yl)-1-oxopropan-2-yl) piperidine-4-carboxamide]",≤ 10 nM
11,"CC1(C)C(=O)N(C2CCN(C(=O)[C@H](Cc3ccccc3)NC(=O)[C@@H]3CCCNC3)CC2)c2ccccc21 [Example 82, (R)-N-((S)-1-(4-(3,3-dimethyl-2-oxoindolin-1-yl)piperidin-1-yl)-1-oxo-3-phenylpropan-2-yl) piperidine-3-carboxamide]",≤ 10 nM
12,"CC1(C)C(=O)N(C2CCN(C(=O)[C@H](Cc3ccccc3F)NC(=O)[C@@H]3CCCNC3)CC2)c2ccccc21 [Example 83, (R)-N-((S)-1-(4-(3,3-dimethyl-2-oxoindolin-1-yl)piperidin-1-yl)-3-(2-fluorophenyl)-1-oxo-propan-2-yl)piperidine-3-carboxamide]",≤ 10 nM
13,"CC1(C)C(=O)N(C2CCN(C(=O)[C@H](Cc3ccccc3C(F)(F)F)NC(=O)[C@@H]3CCCNC3)CC2)c2ccccc21 [Example 85, (R)-N-((S)-1-(4-(3,3-dimethyl-2-oxoindolin-1-yl)piperidin-1-yl)-1-oxo-3-(2-(trifluoromethyl)phenyl)propan-2-yl) piperidine-3-carboxamide]",≤ 10 nM
14,"CC1(C)C(=O)N(C2CCN(C(=O)[C@H](Cc3ccccc3Cl)NC(=O)[C@@H]3CCCNC3)CC2)c2ccccc21 [Example 86, (R)-N-((S)-3-(2-chloro-phenyl)-1-(4-(3,3-dimethyl-2-oxoindolin-1-yl)piperidin-1-yl)-1-oxo-propan-2-yl)piperidine-3-carboxamide]",≤ 10 nM
15,"CC1(C)C(=O)N(C2CCN(C(=O)[C@H](Cc3ccc(Cl)cc3)NC(=O)[C@@H]3CCCNC3)CC2)c2ccccc21 [Example 87, (R)-N-((S)-3-(4-chloro-phenyl)-1-(4-(3,3-dimethyl-2-oxoindolin-1-yl)piperidin-1-yl)-1-oxopropan-2-yl)piperidine-3-carboxamide]",≤ 10 nM
16,"CN[C@H]1CCN(C(=O)N[C@@H](Cc2ccccc2C(F)(F)F)C(=O)N2CCC(N3C(=O)C(C)(C)c4ccccc43)CC2)C1 [Example 92, (S)-N-((S)-1-(4-(3,3-dimethyl-2-oxoindolin-1-yl)piperidin-1-yl)-1-oxo-3-(2-(trifluoromethyl)phenyl)propan-2-yl)-3-(methylamino)pyrrolidine-1-carboxamide]",≤ 10 nM
17,"CN[C@H]1CCN(C(=O)N[C@@H](Cc2ccccc2Cl)C(=O)N2CCC(N3C(=O)C(C)(C)c4ccccc43)CC2)C1 [Example 93, (S)-N-((S)-3-(2-chloro-phenyl)-1-(4-(3,3-dimethyl-2-oxoindolin-1-yl)piperidin-1-yl)-1-oxopropan-2-yl)-3-(methylamino)pyrrolidine-1-carboxamide]",≤ 10 nM
18,"CN[C@H]1CCN(C(=O)N[C@@H](Cc2ccc(Cl)cc2)C(=O)N2CCC(N3C(=O)C(C)(C)c4ccccc43)CC2)C1 [Example 94, (S)-N-((S)-3-(4-chloro-phenyl)-1-(4-(3,3-dimethyl-2-oxoindolin-1-yl)piperidin-1-yl)-1-oxopropan-2-yl)-3-(methylamino)pyrrolidine-1-carboxamide]",≤ 10 nM

# Same assay, conditions: ED50 (nM), Table 15; functional activity toward GPR38 (motilin receptor), (S) versus (R) amino acid linker
row,SMILES,EC50
1,CC1(C)C(=O)N(C2CCN(C(=O)[C@@H](CCc3ccccc3)NC(=O)[C@@H]3CCCNC3)CC2)c2ccccc21 [Example 98],6210 nM
2,"CN[C@H]1CCN(C(=O)N[C@H](CCc2ccccc2)C(=O)N2CCC(N3C(=O)C(C)(C)c4ccccc43)CC2)C1 [Example 99, (S)—N—((R)-1-(4-(3,3-dimethyl-2-oxoindolin-1-yl)piperidin-1-yl)-1-oxo-4-phenylbutan-2-yl)-3-(methylamino)pyrrolidine-1-carboxamide]",488 nM
